Measurements as given in PubChem BioAssay (NCI).
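Five concentrations, 48 hours, 96-well plates. TGI: total growth inhibition.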

Columns and labels:
Test in all cases: growth of human tumour cells (NCI), 48 h
[1] = system: SF-268 CNS
[2] = system: LOX IMVI melanoma
[3] = system: HCT-15 colon
[4] = system: A549 NSCLC
[5] = system: U251 CNS
[6] = system: M14 melanoma
[7] = system: HT29 colon

SMILES | TGI [1] | TGI [2] | TGI [3] | TGI [4] | TGI [5] | TGI [6] | TGI [7]
NC12CC3CC(C1)CC(C(=O)O)(C3)C2 | > 100 µM | > 100 µM | > 100 µM | > 100 µM | > 100 µM | > 100 µM | > 100 µM
O=[N+]([O-])c1ccc(C=NC2CCCCC2)cc1 | > 100 µM | > 100 µM | > 100 µM | > 100 µM | > 100 µM | > 100 µM | > 100 µM
CCCC1N2CCCCC2[C@@H]2c3[nH]c4ccccc4c3CCN12 (stereo partly drawn) | > 100 µM |  | > 100 µM | > 100 µM | > 100 µM | > 100 µM | > 100 µM
CN(C)CCNC(=O)c1cccc2ccc(-c3ccncc3)nc12 | 21.7 µM |  | 11.9 µM |  | 8.75 µM | 16.1 µM | 13.8 µM
Cc1c(C(=O)C/C(=N/NC(=O)C[N+](C)(C)C)C(=O)Nc2ccc(Cl)cc2)[n+](=O)c2ccccc2n1O | > 100 µM | > 100 µM | > 100 µM | > 100 µM | > 100 µM | > 100 µM | > 100 µM
COCCCNC(=O)C1C(=O)C(=O)N(CCCOC)C1=O (stereo not drawn) | > 100 µM | > 100 µM | > 100 µM | > 100 µM | > 100 µM | > 100 µM | > 100 µM
O=C(O)C(CS)Nc1c2ccccc2nc2ccccc12 (stereo not drawn) | > 100 µM | > 100 µM | > 100 µM | > 100 µM | > 100 µM | > 100 µM | > 100 µM
C[C@@H]1OC(=O)N2CCCC(=C3SCCCS3)C12 (stereo partly drawn) | > 100 µM | > 100 µM | > 100 µM | > 100 µM | > 100 µM | > 100 µM | > 100 µM
C/C(O)=C(\N=O)C(=O)Nc1ccc(Cl)cc1Cl | > 100 µM | > 100 µM | > 100 µM | > 100 µM | > 100 µM | > 100 µM | > 100 µM
N#C/C(=C\c1ccc2ccccc2c1)c1ccccc1 | > 100 µM | > 100 µM | > 100 µM |  | 57.1 µM | 65.6 µM | 74.6 µM
COC1(OC)CC2OC1C1N=NN(C(=O)OC(C)(C)C)C21 (stereo not drawn) | > 100 µM | > 100 µM | > 100 µM | > 100 µM | > 100 µM | > 100 µM | > 100 µM
CC(C)(C)c1cc(CCC(=O)Nc2ccc(Cl)cc2)nc(NC#N)n1 | > 100 µM | > 100 µM | > 100 µM | > 100 µM | > 100 µM | > 100 µM | > 100 µM
COc1ccc(NC(=O)CC(=O)N/N=C/c2ccc(N(CCC#N)S(C)(=O)=O)cc2)cc1 | > 100 µM | > 100 µM | > 100 µM | > 100 µM | > 100 µM | > 100 µM | > 100 µM
Nc1c(-c2ccc(Cl)cc2)[n+]([O-])c2ccccc2[n+]1[O-] | > 100 µM | > 100 µM | > 100 µM | > 100 µM | > 100 µM | > 100 µM | > 100 µM
CC(SC(=S)N1CCOCC1)c1cc2oc(=O)n(C)c2cc1Cl (stereo not drawn) | > 100 µM | > 100 µM | > 100 µM | > 100 µM | > 100 µM | > 100 µM | > 100 µM
O=C(CCc1cc(-c2ccccc2)nc(=S)[nH]1)N(Cc1ccccc1)Cc1ccccc1 | > 100 µM | > 100 µM | > 100 µM | > 100 µM | > 100 µM | > 100 µM | > 100 µM
COc1ccc2c(c1)[n+](=O)c(C(=O)C/C(=N/OCCCc1ccccc1)C(=O)NC13CC4CC(CC(C4)C1)C3)c(C)n2[O-] | > 100 µM | > 100 µM | > 100 µM | > 100 µM | > 100 µM | > 100 µM | > 100 µM
Nc1cccc(S(=O)(=O)NCC(=O)O)c1 | > 100 µM | > 100 µM | > 100 µM | > 100 µM | > 100 µM | > 100 µM | > 100 µM
CCc1ccccc1NC(=O)C1=C(C)NC(C)=C(C(=O)Nc2ccccc2CC)C1c1ccc2c(c1)OCO2 | > 100 µM | 88.7 µM |  | > 100 µM | 97.1 µM | > 100 µM | > 100 µM
NC1=NC(c2ccccc2)CC(c2cc(Cl)ccc2O)=N1 (stereo not drawn) | 30.8 µM | 29.5 µM |  | 29 µM | 29.9 µM | 30.5 µM | 32.1 µM
O=C(CC1(O)C(=O)Nc2c(Cl)ccc(Cl)c21)c1ccc(F)cc1 (stereo not drawn) | > 100 µM | > 100 µM | > 100 µM | > 100 µM | > 100 µM | > 100 µM | > 100 µM
O=C(N/C(=C\c1cccc([N+](=O)[O-])c1)c1nc2ccc([N+](=O)[O-])cc2[nH]1)c1ccccc1 | > 100 µM |  | > 100 µM | > 100 µM | > 100 µM | > 100 µM | > 100 µM
CCN(CC)C(c1ccc(N(C)C)cc1)C(c1ccc(N(C)C)cc1)N(CC)CC (stereo not drawn) | > 73 µM |  | > 73 µM | > 73 µM | > 73 µM | > 73 µM | > 73 µM
